# According to US10426772B2, “Use of ergot alkaloids as an anthelmintic agent” (priority 2016, dated 2019):
# How the values were obtained:
# Sm.5HTR = Sm.5HTR (Schistosoma mansoni, UniProt G4V5G4); assay type: cell-based; conditions: FIG. 10A
# S. mansoni = test: Curative efficacy against schistosome infection in mice; assay type: in vivo, Schistosoma mansoni
# Method: Assays testing the curative efficacy of compounds against schistosome infection were performed on mice 6 weeks after exposure to cerceria. Drugs were dosed as follows. Ergotamine (95 mg/kg) was solubilized in 50 μL DMSO and diluted in 200 μL trappsol-saline and delivered by intraperitoneal injection twice a day for one week. Praziquantel (50 mg/kg) was similarly solubilized and injected intraperitoneally once a day for one week. The negative control cohort was given twice daily injections of DMSO (50 μL) added to 200 μL trappsol-saline solution. Mice were weighed and euthanized at 49 days post infection. Worms were harvested and counted as in the hepatic shift assay. Spleen and livers were weighed, and a segment of intestine was excised from the most distal region of the rectum to 10 cm above the cecum. The small and large intestines were separated by cutting immediately above and below the cecum. Each was cut lengthwise to expose the lumen and thoroughly washed in NaCl (1.2%) to remove excrement. Intestines were laid flat with the intestinal mucosa facing upwards and clamped between two glass plates to allow visual inspection of eggs using a stereo microscope.
# Mice were injected with vehicle control (dmso), the current frontline anthelmintic (praziquantel) or ergotamine twice daily for one week at starting 42 days post infection.
# All animals were sacrificed 49 days post infection, and worms were harvested by dissection of the mesenteric vasculature, portal vein and liver. […] Schistosomes lay large numbers of eggs within the host mesenteric system, and these progress through stages of development over approximately 5 days which can be scored looking at samples of the intestinal mucosa (Pellegrino et al., 1965). Therefore, it is possible to visually determine whether drug treatment has arrested parasite egg laying by observing a lack of developing eggs. Sections of both the large and small intestines were examined and eggs were manually counted and scored according to developmental stage (representative stages of embryo development shown in FIG. 20H-I, top).
# adult S. mansoni = test: Movement assay of cultured adult S. mansoni (Example 2); assay type: cell-based; conditions: Schistosoma mansoni; FIG. 19B; read-out: EC50, stimulation of adult schistosome movement
# Source text: Female Swiss Webster mice infected with S. mansoni cerceria (NMRI strain) were sacrificed 49 days post infection by CO2 euthanasia. Adult schistosomes were recovered by perfusion with a solution of 0.85% sodium chloride+0.75% sodium citrate and dissection of the mesenteric vasculature. Harvested schistosomes were washed in RPMI 1640 Medium with GlutaMAX+5% heat inactivated FBS (Gibco) and Penicillin-Streptomycin (final concentration 100 units/mL, ThermoFisher cat #15140122).
# For movement assays, worms were cultured 37° C./5% CO2 in vented 100×25 mm petri dishes (ThermoFisher cat #4031) containing 50 mL of media and used between 1-3 days after harvesting. Prior to assessing worm movement, individuals were transferred to a six well dish (4-5 individuals per well) containing 3 mL drug solution in RPMI 1640 supplemented with HEPES (25 mM) and MS (5%). Videos were recorded using a Zeiss Discovery v20 stereomicroscope and a QiCAM 12-bit cooled color CCD camera controlled by metamorph imaging software (version 7.8.1.0). 1 minute recordings were acquired at 4 frames per second, saved as a .TIFF stack, and movement was analyzed using ImageJ software as described in (PMID: 27187180, PMID: 27397763).
# [1] = infected mice, ergotamine 95 mg/kg i.p. twice a day, one week
# Sequence of Sm.5HTR (G4V5G4 entry or part of it): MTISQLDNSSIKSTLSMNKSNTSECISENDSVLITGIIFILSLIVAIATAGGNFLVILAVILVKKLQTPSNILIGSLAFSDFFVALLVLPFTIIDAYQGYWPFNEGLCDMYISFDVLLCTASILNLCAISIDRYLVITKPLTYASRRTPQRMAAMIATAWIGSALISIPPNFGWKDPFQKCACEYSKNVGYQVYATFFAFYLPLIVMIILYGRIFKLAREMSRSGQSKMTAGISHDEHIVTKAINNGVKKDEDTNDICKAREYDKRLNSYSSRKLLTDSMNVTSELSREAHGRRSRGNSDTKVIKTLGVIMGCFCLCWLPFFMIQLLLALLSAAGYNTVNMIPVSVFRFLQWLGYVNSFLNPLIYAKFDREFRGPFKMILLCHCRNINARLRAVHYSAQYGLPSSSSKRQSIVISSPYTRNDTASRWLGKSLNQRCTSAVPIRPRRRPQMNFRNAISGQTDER
compound,measurement,setting,value
CN1C[C@H](C(=O)N[C@]2(C)O[C@@]3(O)[C@@H]4CCCN4C(=O)[C@H](Cc4ccccc4)N3C2=O)C=C2c3cccc4[nH]cc(c34)C[C@H]21 [ergotamine],"agonist efficacy at Sm.5HTR, in words",Sm.5HTR,partial agonism
same,EC50,"Sm.5HTR; read-out: EC50, agonist activity at Sm.5HTR",232 nM
same,increase of liver relative to uninfected littermates,S. mansoni; [1],15±34%
same,increase of spleen relative to uninfected littermates,S. mansoni; [1],151±80%
same,reduction of worm burden relative to controls,"S. mansoni; mice, ergotamine 95 mg/kg i.p. twice a day for one week from 42 days post infection, sacrificed day 49",65±10%
same,decrease in intestinal egg counts,"S. mansoni; mice, ergotamine 95 mg/kg twice a day, praziquantel 50 mg/kg once a day, i.p., one week, versus vehicle control",96%
same,EC50,adult S. mansoni,10 ± 3 nM
